This note sets out measurements from patent publication US11224565B2, “N-acyldipeptide derivatives and their uses” (NeoStrata Company, Inc., priority 2011, dated 2022).

Common to all, as to type: in vivo, human
Experiment [1] has as its system fungal infections of two toe nails. Put plainly: Topical treatment of fungal infections of toe nails. The following applies: twice daily, after several weeks; 0.5% (w/v) N-Ac-L-Tyr-L-Tyr-NH2 in WEP442 pH 6.7 on one nail, 0.5% (w/v) N-Ac-L-Tyr-L-Tyr-NHNHAc in WEP442 pH 5.5 on another. From the text: A subject had fungal infections of two toe nails for many years. Topical treatments with clotrimazole and salicylic acid with or without glycolic acid had not been successful, as shown by the persistent appearance of white and sandy nail plates. The subject topically applied twice daily to one infected nail plate, 0.5% (w/v) N—Ac-L-Tyr-L-Tyr-NH2 in WEP442, pH 6.7 (Example 5), and to another infected nail plate, 0.5% (w/v) N—Ac-L-Tyr-L-Tyr-NHNHAc in WEP442, pH 5.5 (Example 5) for several months. […] Continued topical applications of the formulations should eradicate the nail infections, and the toe nails should start to grow normally.

The subject of experiment [2] is inflammation, dermatitis, or eczema lesions. The experiment can be described thus: Topical application to chronic inflammation, dermatitis, eczema or allergic skin lesions, clinical evaluation. As to conditions: for skin color of treated skin compared to surrounding untreated skin: 4 weeks, 0.5% N-Ac-L-Tyr-L-Tyr-NH2 solution or 0.4% N-Ac-L-Val-L-Ala-NH2 in WEP442. The text has this: In another embodiment, the volunteer subject topically applied the test compositions containing N-acyldipeptide derivatives of the present invention on involved skin or lesions once or twice daily for several weeks or until the involved lesions completely cleared and clinically changed to normal skin. As a control study, the subject also topically applied a vehicle control composition on the involved skin or lesions twice daily for the same period.

The test system of experiment [3] is Disturbed keratinization. The experiment can be described thus: Summary of test results in volunteer subjects: disturbed keratinization. As to conditions: efficacy grade. The essentials: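 Volunteers applied N-acyldipeptide derivatives dissolved in water/ethanol/propylene glycol 40:40:20, ethanol/propylene glycol 80:20, or water/propylene glycol 80:20 mixed into oil-in-water cream, on involved skin once or twice daily for several weeks or until clearing. Vehicle applied twice daily as control; disturbed keratinization lesions assessed clinically.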

In experiment [4] the test system is Nerve disorders. The experiment can be described thus: Summary of test results in volunteer subjects: nerve disorders. The following applies: efficacy grade. The essentials:
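Volunteers applied N-acyldipeptide derivatives dissolved in water/ethanol/propylene glycol (40:40:20), ethanol/propylene glycol (80:20), or water/propylene glycol (80:20) mixed into cream, once or twice daily for several weeks or until lesions cleared. Vehicle control applied twice daily; application also over arthritic joints or painful muscles.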

In experiment [5] the test system is Deranged immune disorders and inflammation. The experiment can be described thus: Summary of test results in volunteer subjects: deranged immune disorders and inflammation. As to conditions: efficacy grade. The essentials: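 Volunteers applied N-acyldipeptide derivatives topically once or twice daily for several weeks or until lesions cleared. Compounds were dissolved in water/ethanol/propylene glycol (40:40:20) or ethanol/propylene glycol (80:20), or in water/propylene glycol (80:20) mixed into an oil-in-water cream. Vehicle control applied twice daily.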

Experiment [6] has as its system Aging related changes of skin, nail and hair. Put plainly: Summary of test results in volunteer subjects: aging related changes. As to conditions: efficacy grade.
The mark [7] stands for this setting: chronic eczema right leg, twice daily.
Where [8] appears, read: chronic eczema right leg, twice daily, 0.5% (w/v) N-Ac-L-Tyr-L-Tyr-NH2 solution pH 6.7 on one lesion, 0.4% (w/v) N-Ac-L-Val-L-Ala-NH2 in WEP442 pH 5.8 on second.
Where [9] appears, read: chronic eczema of legs, twice daily, 2% (w/v) N-Ac-L-Val-L-Ala-NH2 cream on one leg, 0.5% (w/w) N-Ac-L-Tyr-L-Tyr-NHNHAc in WEP442 pH 5.5 on the other.

Peptide text beside a SMILES is read from it.

For the compound `CC(=O)N[C@@H](Cc1ccc(O)cc1)C(=O)N[C@@H](Cc1ccc(O)cc1)C(N)=O` [N-Ac-L-Tyr-L-Tyr-NH2] (Ac-Tyr-Tyr-NH2), in experiment [1], the “white and sandy appearance of infected nail plates” value is “started to change gradually”. For the same compound, in experiment [2] (setting [7]), the “skin color of treated skin compared to surrounding untreated skin” value is “much lighter in skin color”. Further, the “itch after topical application” value in experiment [2] (setting [8]) was “stopped within a few minutes”. Further, the DK in experiment [3] is recorded as 4+ (4+: 95-100% Efficacy). Besides, the ND in experiment [4] is 4+ (4+: 95-100% Efficacy). Moreover, the DI in experiment [5] is recorded as 4+ (4+: 95-100% Efficacy). The AG in experiment [6] is given as 4+ (4+: 95-100% Efficacy).

Consider `CC(=O)NNC(=O)[C@H](Cc1ccc(O)cc1)NC(=O)[C@H](Cc1ccc(O)cc1)NC(C)=O` [N-Ac-L-Tyr-L-Tyr-NHNHAc], for which the “white and sandy appearance of infected nail plates” value in experiment [1] was “started to change gradually”. The “itch after topical application” value in experiment [2] (setting [9]) was “stopped within a few minutes”; in experiment [2] (chronic eczema, twice daily, 0.6% (w/w) N-Ac-L-Tyr-L-Tyr-NHNH2 cream on one set of lesions, 0.7% (w/w) N-Ac-L-Tyr-L-Tyr-NHNHAc cream on another), “stopped immediately”. In experiment [2] (chronic eczema, twice daily, two weeks, 0.6% (w/w) N-Ac-L-Tyr-L-Tyr-NHNH2 cream on one set of lesions, 0.7% (w/w) N-Ac-L-Tyr-L-Tyr-NHNHAc cream on another), the “improvement as judged by clinical evaluation” value worked out at 100%. Besides, the DK in experiment [3] is recorded as 4+ (4+: 95-100% Efficacy). The ND in experiment [4] is reported as 4+ (4+: 95-100% Efficacy). In addition, the DI in experiment [5] was 4+ (4+: 95-100% Efficacy). For the same compound, the AG in experiment [6] is reported as 3+ (3+: 75% Efficacy).

As to `CC(=O)N[C@H](C(=O)N[C@@H](C)C(N)=O)C(C)C` [N-Ac-L-Val-L-Ala-NH2] (Ac-Val-Ala-NH2), the “itch after topical application” value in experiment [2] (0.5% (w/w) cream twice daily, skin allergy from shellfish with reddish papules) was “stopped within a few minutes”; in experiment [2] (setting [9]), “stopped within a few minutes”; in experiment [2] (setting [8]) it was “stopped within a few minutes”. Further, in experiment [2] (0.5% (w/w) cream twice daily, skin allergy from shellfish, end of 5 days), the “improvement as judged by clinical evaluation” value was 75%. In experiment [2] (setting [7]), the “skin color of treated skin compared to surrounding untreated skin” value was “much lighter in skin color”. In experiment [3], the DK is 4+ (4+: 95-100% Efficacy). Moreover, the ND in experiment [4] is 4+ (4+: 95-100% Efficacy). Besides, the DI in experiment [5] is 4+ (4+: 95-100% Efficacy). Also, the AG in experiment [6] is listed as 4+ (4+: 95-100% Efficacy).
